Reference: article PMC3914206

Experiments:
Assay type in all cases: binding
Conditions in all cases: Compound Concentration 10 µM
panel of 442 kinases [1] = molecular target: T1, panel of 442 kinases (Homo sapiens, UniProt P19525)
T1 construct: purchased KINOMEscan
Description: (§1) We assessed the selectivity of members of this scaffold using the KINOMEscan methodology across a near comprehensive panel of 442 kinases [[18,27]].

panel of 442 kinases [2] = molecular target: T2, panel of 442 kinases (Homo sapiens, UniProt Q92630)
T2 construct: purchased KINOMEscan
T2 sequence (Q92630 1-601): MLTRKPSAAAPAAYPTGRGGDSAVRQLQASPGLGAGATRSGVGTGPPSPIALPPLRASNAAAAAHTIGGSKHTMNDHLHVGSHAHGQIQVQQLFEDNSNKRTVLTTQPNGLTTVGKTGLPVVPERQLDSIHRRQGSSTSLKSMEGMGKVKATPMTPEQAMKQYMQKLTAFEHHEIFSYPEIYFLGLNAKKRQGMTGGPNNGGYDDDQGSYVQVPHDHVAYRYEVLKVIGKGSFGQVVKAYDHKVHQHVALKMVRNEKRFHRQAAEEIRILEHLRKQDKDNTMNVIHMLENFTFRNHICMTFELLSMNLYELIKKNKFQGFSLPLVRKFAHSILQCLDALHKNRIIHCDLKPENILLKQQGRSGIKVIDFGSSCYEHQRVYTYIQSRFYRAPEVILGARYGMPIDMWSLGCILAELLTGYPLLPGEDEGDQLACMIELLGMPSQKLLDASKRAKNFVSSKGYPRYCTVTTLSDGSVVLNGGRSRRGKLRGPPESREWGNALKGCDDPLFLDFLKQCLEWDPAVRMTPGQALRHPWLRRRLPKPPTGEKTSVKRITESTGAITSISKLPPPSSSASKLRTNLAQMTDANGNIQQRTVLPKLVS
Description: as §1

panel of 442 kinases [3] = molecular target: T3, panel of 442 kinases (Homo sapiens, UniProt P51812)
T3 construct: purchased KINOMEscan
T3 sequence (P51812 whole entry): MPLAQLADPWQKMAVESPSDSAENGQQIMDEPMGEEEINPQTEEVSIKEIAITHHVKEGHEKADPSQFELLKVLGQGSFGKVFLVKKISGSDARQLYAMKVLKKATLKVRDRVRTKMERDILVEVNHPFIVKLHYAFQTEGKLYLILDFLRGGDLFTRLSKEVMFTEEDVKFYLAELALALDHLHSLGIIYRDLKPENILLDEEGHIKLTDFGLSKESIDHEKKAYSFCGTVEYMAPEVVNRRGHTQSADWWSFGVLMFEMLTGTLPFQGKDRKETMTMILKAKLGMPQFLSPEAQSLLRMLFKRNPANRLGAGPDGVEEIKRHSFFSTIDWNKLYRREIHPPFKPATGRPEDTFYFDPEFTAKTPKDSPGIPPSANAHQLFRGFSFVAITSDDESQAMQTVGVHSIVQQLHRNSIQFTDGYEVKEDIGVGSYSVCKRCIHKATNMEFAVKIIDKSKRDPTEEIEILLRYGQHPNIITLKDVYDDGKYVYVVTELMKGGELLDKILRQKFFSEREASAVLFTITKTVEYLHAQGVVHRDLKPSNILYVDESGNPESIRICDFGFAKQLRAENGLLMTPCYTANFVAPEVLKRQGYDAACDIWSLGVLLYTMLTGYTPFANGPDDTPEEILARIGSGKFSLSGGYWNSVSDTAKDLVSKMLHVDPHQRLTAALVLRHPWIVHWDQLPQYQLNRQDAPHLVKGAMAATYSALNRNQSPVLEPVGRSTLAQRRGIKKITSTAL
Description: as §1

T1 sequence (P19525 whole entry): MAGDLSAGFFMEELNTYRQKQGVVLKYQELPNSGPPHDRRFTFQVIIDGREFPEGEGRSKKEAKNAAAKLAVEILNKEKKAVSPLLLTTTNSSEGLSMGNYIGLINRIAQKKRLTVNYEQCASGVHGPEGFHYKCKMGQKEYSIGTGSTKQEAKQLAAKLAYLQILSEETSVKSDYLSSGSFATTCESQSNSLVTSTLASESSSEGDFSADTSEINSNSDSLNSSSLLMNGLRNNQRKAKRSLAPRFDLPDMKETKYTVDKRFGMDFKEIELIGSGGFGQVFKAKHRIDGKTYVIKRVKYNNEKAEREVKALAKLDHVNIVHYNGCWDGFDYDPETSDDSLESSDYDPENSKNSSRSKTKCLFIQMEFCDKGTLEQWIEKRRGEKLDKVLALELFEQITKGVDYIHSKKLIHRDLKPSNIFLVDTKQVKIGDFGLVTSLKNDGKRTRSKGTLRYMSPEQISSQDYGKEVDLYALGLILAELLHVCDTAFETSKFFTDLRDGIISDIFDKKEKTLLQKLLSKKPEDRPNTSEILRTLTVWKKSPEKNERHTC

Row | Compound | KINOMEscan: PRKR (panel of 442 kinases [1]) | KINOMEscan: DYRK2 (panel of 442 kinases [2]) | KINOMEscan: RSK2(Kin.Dom.1-N-terminal) (panel of 442 kinases [3])
1 | COc1cc(C(=O)N2CCC(N3CCN(C)CC3)CC2)ccc1Nc1ncc2c(n1)N(C)c1ccccc1C(=O)N2C [15 (LRRK2-IN-1)] | 84 | 76 | 77
2 | COc1cc(C(=O)N2CCC(N3CCN(C)CC3)CC2)ccc1Nc1ncc2c(n1)N1CCc3cccc(c31)C(=O)N2C [Compound 24] | 33 | 82 | 
3 | COc1cc(C(=O)N2CCC(N3CCN(C)CC3)CC2)ccc1Nc1ncc2c(n1)N(C1CCCC1)c1ccccc1C(=O)N2C [Compound 25, 11-cyclopentyl-2-((2-methoxy-4-(4-(4-methylpiperazin-1-yl)piperidine-1-carbonyl)phenyl)amino)-5-methyl-5H-benzo[e]pyrimido[5,4-b][1,4]diazepin-6(11H)-one] | 71 | 100 | 100
4 | CCOc1cc(C(=O)N2CCC(N3CCN(C)CC3)CC2)ccc1Nc1ncc2c(n1)N(C1CCCC1)c1ccccc1C(=O)N2C [Compound 26] | 97 | 100 | 100
